# From ChEMBL document CHEMBL1287693, “Selective accumulation of a novel antimalarial rhodacyanine derivative, SSJ-127, in an organelle of Plasmodium berghei” (Bioorg Med Chem, 2010)
# Activity calls are given as the source filed them. The calls are words filed in the database; no cut-off is given here.
# Tests used:
# Plasmodium berghei [1] = test: Effect on multidrug resistance protein-mediated Rhodamine 123 drug uptake in blood stage of Plasmodium berghei NK65 mitochondria infected ICR mice (Mus musculus) RBCs at 10 uM after 20 min by fluorescence microscopy
# Plasmodium berghei [2] = test: Drug uptake in ring stage of Plasmodium berghei NK65 infected in ICR mice (Mus musculus) RBCs at 10 nM after 20 min using Rhodamine 123 by fluorescence microscopy; type: ADME, organism-based; details: in vivo, 0.01 µM
# Plasmodium berghei [3] = test: Drug uptake in early trophozoite stage of Plasmodium berghei NK65 infected in ICR mice (Mus musculus) RBCs at 10 nM after 20 min using Rhodamine 123 by fluorescence microscopy; type: ADME, organism-based; details: in vivo, 0.01 µM
# Plasmodium berghei [4] = test: Drug uptake in late trophozoite stage of Plasmodium berghei NK65 infected in ICR mice (Mus musculus) RBCs at 10 nM after 20 min using Rhodamine 123 by fluorescence microscopy; type: ADME, organism-based; details: in vivo, 0.01 µM
# Plasmodium berghei [5] = test: Drug uptake in schizont stage of Plasmodium berghei NK65 infected in ICR mice (Mus musculus) RBCs at 10 nM after 20 min using Rhodamine 123 by fluorescence microscopy; type: ADME, organism-based; details: in vivo, 0.01 µM
# Plasmodium berghei [6] = test: Antimalarial activity against Plasmodium berghei NK65 infected in mice (Mus musculus) assessed as reduction of parasitaemia at 40 mg/kg, subcutaneous daily for 3 days; type: functional; design: scale not given: the % may be the effect or the level left
# Plasmodium berghei [7] = test: Antimalarial activity against Plasmodium berghei NK65 infected in mice (Mus musculus) assessed as increase of mice (Mus musculus) survival days at 40 mg/kg, subcutaneous daily for 3 days measured up to 18 months; type: functional, organism-based; design: dose 40 mg/kg
# Mus musculus = test: Drug uptake in Plasmodium berghei NK65 infected ICR mice (Mus musculus) RBCs at 40 mg/kg, subcutaneously qd for 3 days after 23 hrs; type: ADME, organism-based; design: dose 40 mg/kg, route subcutaneous; details: in vivo, sc
# Plasmodium berghei [8] = test: Antimalarial activity against Plasmodium berghei NK65 infected in mice (Mus musculus) assessed as reduction of parasitaemia at 40 mg/kg, subcutaneous after 23 hrs (reference value: 8.2 to 25.3 %); type: functional; design: scale not given: the % may be the effect or the level left
# Plasmodium berghei [9] = test: Effect on multidrug resistance protein-mediated Rhodamine 123 drug uptake in blood stage of Plasmodium berghei NK65 mitochondria infected ICR mice (Mus musculus) RBCs at 10 nM after 20 min by fluorescence microscopy
# [10] = Drug uptake in blood stage of Plasmodium berghei NK65 infected ICR mice (Mus musculus) RBCs at 0.25 uM after 20 min using Rhodamine 123 by fluorescence microscopy; type: ADME, tissue-based; details: erythrocyte
# [11] = Drug uptake in blood stage of Plasmodium berghei NK65 mitochondria infected ICR mice (Mus musculus) RBCs at 0.25 uM after 20 min using Rhodamine 123 by fluorescence microscopy; type: ADME
# [12] = Drug uptake in blood stage of Plasmodium berghei NK65 nucleus infected ICR mice (Mus musculus) RBCs at 0.25 uM after 20 min using Rhodamine 123 by fluorescence microscopy; type: ADME, tissue-based
SMILES,Drug uptake (Plasmodium berghei [1]),Drug uptake (Plasmodium berghei [2]),Drug uptake (Plasmodium berghei [3]),Drug uptake (Plasmodium berghei [4]),Drug uptake (Plasmodium berghei [5]),Activity (Plasmodium berghei [6]) [%],Activity (Plasmodium berghei [7]),Drug uptake (Mus musculus),Activity (Plasmodium berghei [8]) [%],Drug uptake (Plasmodium berghei [9]),Drug uptake [10],Drug uptake [11],Drug uptake [12]
N#CC(C#N)=NNc1cccc(Cl)c1,inactive,,,,,,,,,,,,
CCn1c(=O)/c(=C/C=c2\nc3c(o2)=CC=CN3C)s/c1=C\c1sc2ccccc2[n+]1C.[Cl-],,Active,Active,Active,Active,100,Active,Active,10.8,Active,Active,Active,Active
CCCCCC[C@H]1C(=O)O[C@H](C)[C@H](NC(=O)c2cccc(NC=O)c2O)C(=O)O[C@@H](C)[C@@H]1OC(=O)CC(C)C,inactive,,,,,,,,,,,,
